Values belong to the compound of their own block, whether it stands above or below them. The source made the active and inactive calls. No cut-off for these calls is given here. Positions of bridges follow the written chain, without caps; N, C: chain ends. Residues, ends and D or L forms follow the SMILES beside them.
Legend:
[1] = Stability of the compound in human serum assessed as half life after 12 hrs by RP-HPLC analysis; format: ADME, cell-free
[2] = Cytotoxicity against mouse HT-22 cells assessed as cell viability at 50 uM measured after 24 hrs by MTT assay; format: cell-based; details: read-out: Activity
[3] = Stability of the compound in human serum after 6 hrs by RP-HPLC analysis; format: ADME, cell-free
[4] = molecular target: Peptidyl-prolyl cis-trans isomerase A (Homo sapiens, UniProt P62937); test: Binding affinity to His6-tagged CypA (unknown origin) expressed in Escherichia coli BL21 (DE3) incubation at 1 hr by multimode plate reader
HT-22 = test: Neuroprotective activity against […]-induced toxicity in mouse HT-22 cells assessed as increase in survival at 50 uM preincubated for 24 hrs followed by […] and measured after 16 hrs by MTT assay; format: functional; details: time 40 hrs
[5] = Stability of the compound in human serum assessed as compound remaining after 12 hrs by RP-HPLC analysis; format: ADME, cell-free; details: read-out: Stability
[6] = Stability of the compound in human serum after 2 hrs by RP-HPLC analysis; format: ADME, cell-free

half-life [1]: 4 h | Stability [3]: Unstable
Compound: CC[C@H](C)[C@H](NC(=O)[C@H](Cc1cnc[nH]1)NC(=O)[C@H](CC(=O)O)NC(=O)[C@@H](NC(=O)[C@H](CCC(=O)O)NC(=O)[C@@H](NC(=O)[C@H](CCCCN)NC(=O)[C@H](CCCNC(=N)N)NC(=O)CNC(=O)[C@H](CC(=O)O)NC(=O)[C@H](CCCCN)NC(=O)[C@H](CC(C)C)NC(=O)[C@H](CCCCN)NC(=O)[C@@H](NC(=O)[C@H](CC(C)C)NC(=O)[C@H](CC(C)C)NC(=O)[C@H](CCCCN)NC(=O)CNC(=O)[C@H](CO)NC(=O)[C@H](CO)NC(=O)[C@@H](NC(=O)CNC(=O)[C@@H](NC(=O)[C@H](CO)NC(=O)[C@@H](N)CCC(N)=O)C(C)C)C(C)C)[C@@H](C)CC)C(C)C)[C@@H](C)O)C(=O)O
viability at 24 h, 50 µM [2]: > 90%

Activity [4]: Active
Compound: CC[C@H](C)[C@@H]1NC(=O)[C@H](C)NC(=O)[C@@H](NC(C)=O)CSSC[C@@H](C(N)=O)NC(=O)[C@H](CCC(=O)O)NC(=O)[C@H](C(C)C)NC(=O)[C@H](CCCCN)NC(=O)[C@H](CCCNC(=N)N)NC(=O)CNC(=O)[C@H](CC(=O)O)NC(=O)[C@H](CCCCN)NC(=O)[C@H](CC(C)C)NC(=O)[C@H](CCCCN)NC1=O (Ac-CAIKLKDGRKVEC-NH2; disulfide 1-13)

Kd [4]: 2.4 µM | remaining at 12 h [5]: 75% | Stability [6]: Unstable
Compound: CC[C@H](C)[C@@H]1NC(=O)[C@@H](NC(C)=O)CSSC[C@@H](C(N)=O)NC(=O)[C@H](C(C)C)NC(=O)[C@H](CCCCN)NC(=O)[C@H](CCCNC(=N)N)NC(=O)CNC(=O)[C@H](CC(=O)O)NC(=O)[C@H](CCCCN)NC(=O)[C@H](CC(C)C)NC(=O)[C@H](CCCCN)NC1=O (Ac-CIKLKDGRKVC-NH2; disulfide 1-11)
viability at 24 h, 50 µM [2]: > 90% | Activity (HT-22): 10%

Activity [4]: Active
Compound: CC(=O)N[C@H]1CSSC[C@@H](C(N)=O)NC(=O)[C@H](CCC(=O)O)NC(=O)[C@H](C(C)C)NC(=O)[C@H](CCCCN)NC(=O)[C@H](CCCNC(=N)N)NC(=O)CNC(=O)[C@H](CC(=O)O)NC(=O)[C@H](CCCCN)NC(=O)[C@H](CC(C)C)NC(=O)[C@H](CCCCN)NC(=O)[C@H](C)NC(=O)[C@H](CC(C)C)NC1=O (Ac-CLAKLKDGRKVEC-NH2; disulfide 1-13)

Activity [4]: inactive
Compound: CC[C@H](C)[C@@H]1NC(=O)[C@H](CC(C)C)NC(=O)[C@@H](NC(C)=O)CSSC[C@@H](C(N)=O)NC(=O)[C@H](CCC(=O)O)NC(=O)[C@H](C(C)C)NC(=O)[C@H](CCCCN)NC(=O)[C@H](CCCNC(=N)N)NC(=O)CNC(=O)[C@H](CC(=O)O)NC(=O)[C@H](CCCCN)NC(=O)[C@H](CC(C)C)NC(=O)[C@H](C)NC1=O (Ac-CLIALKDGRKVEC-NH2; disulfide 1-13)

Activity [4]: Active
Compound: CC[C@H](C)[C@@H]1NC(=O)[C@H](CC(C)C)NC(=O)[C@@H](NC(C)=O)CSSC[C@@H](C(N)=O)NC(=O)[C@H](CCC(=O)O)NC(=O)[C@H](C(C)C)NC(=O)[C@H](CCCCN)NC(=O)[C@H](CCCNC(=N)N)NC(=O)CNC(=O)[C@H](CC(=O)O)NC(=O)[C@H](CCCCN)NC(=O)[C@H](C)NC(=O)[C@H](CCCCN)NC1=O (Ac-CLIKAKDGRKVEC-NH2; disulfide 1-13)

Activity [4]: inactive
Compound: CC[C@H](C)[C@@H]1NC(=O)[C@H](CC(C)C)NC(=O)[C@@H](NC(C)=O)CSSC[C@@H](C(N)=O)NC(=O)[C@H](CCC(=O)O)NC(=O)[C@H](C(C)C)NC(=O)[C@H](CCCCN)NC(=O)[C@H](CCCNC(=N)N)NC(=O)CNC(=O)[C@H](CC(=O)O)NC(=O)[C@H](C)NC(=O)[C@H](CC(C)C)NC(=O)[C@H](CCCCN)NC1=O (Ac-CLIKLADGRKVEC-NH2; disulfide 1-13)

Activity [4]: inactive
Compound: CC[C@H](C)[C@@H]1NC(=O)[C@H](CC(C)C)NC(=O)[C@@H](NC(C)=O)CSSC[C@@H](C(N)=O)NC(=O)[C@H](CCC(=O)O)NC(=O)[C@H](C(C)C)NC(=O)[C@H](CCCCN)NC(=O)[C@H](C)NC(=O)CNC(=O)[C@H](CC(=O)O)NC(=O)[C@H](CCCCN)NC(=O)[C@H](CC(C)C)NC(=O)[C@H](CCCCN)NC1=O (Ac-CLIKLKDGAKVEC-NH2; disulfide 1-13)

Activity [4]: inactive
Compound: CC[C@H](C)[C@@H]1NC(=O)[C@H](CC(C)C)NC(=O)[C@@H](NC(C)=O)CSSC[C@@H](C(N)=O)NC(=O)[C@H](CCC(=O)O)NC(=O)[C@H](C(C)C)NC(=O)[C@H](C)NC(=O)[C@H](CCCNC(=N)N)NC(=O)CNC(=O)[C@H](CC(=O)O)NC(=O)[C@H](CCCCN)NC(=O)[C@H](CC(C)C)NC(=O)[C@H](CCCCN)NC1=O (Ac-CLIKLKDGRAVEC-NH2; disulfide 1-13)

Activity [4]: Active
Compound: CC[C@H](C)[C@@H]1NC(=O)[C@H](CC(C)C)NC(=O)[C@@H](NC(C)=O)CSSC[C@@H](C(N)=O)NC(=O)[C@H](CCC(=O)O)NC(=O)[C@H](C)NC(=O)[C@H](CCCCN)NC(=O)[C@H](CCCNC(=N)N)NC(=O)CNC(=O)[C@H](CC(=O)O)NC(=O)[C@H](CCCCN)NC(=O)[C@H](CC(C)C)NC(=O)[C@H](CCCCN)NC1=O (Ac-CLIKLKDGRKAEC-NH2; disulfide 1-13)

Kd [4]: 30 µM
Compound: CC[C@H](C)[C@H](NC(=O)[C@H](CC(C)C)NC(=O)[C@H](CS)NC(C)=O)C(=O)N[C@@H](CCCCN)C(=O)N[C@@H](CC(C)C)C(=O)N[C@@H](CCCCN)C(=O)N[C@@H](CC(=O)O)C(=O)NCC(=O)N[C@@H](CCCNC(=N)N)C(=O)N[C@@H](CCCCN)C(=O)N[C@H](C(=O)N[C@@H](CCC(=O)O)C(=O)N[C@@H](CS)C(N)=O)C(C)C (Ac-CLIKLKDGRKVEC-NH2)

Kd [4]: 3.2 µM
Compound: CC[C@H](C)[C@@H]1NC(=O)[C@H](CC(C)C)NC(=O)[C@@H](NC(C)=O)CSSC[C@@H](C(N)=O)NC(=O)[C@H](CCC(=O)O)NC(=O)[C@H](C(C)C)NC(=O)[C@H](CCCCN)NC(=O)[C@H](CCCNC(=N)N)NC(=O)CNC(=O)[C@H](CC(=O)O)NC(=O)[C@H](CCCCN)NC(=O)[C@H](CC(C)C)NC(=O)[C@H](CCCCN)NC1=O (Ac-CLIKLKDGRKVEC-NH2; disulfide 1-13)
